Test results as given in patent US12435044B2, “Pyridazinone herbicides and pyridazinone intermediates used to prepare a herbicide” (FMC Corporation, priority 2018, dated 2025).

Assays:
Type in all cases: in vivo
Settings in all cases: scale 0 to 100
[1] = system: foxtail, giant (Setaria faberii); assay: Test C pre-/postemergence greenhouse test
Summary of the method: (§1)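 Test chemicals in a non-phytotoxic solvent mixture with surfactant; preemergence on seeds sown in silt loam, postemergence on plants 2–18 cm tall (1- to 4-leaf stage) in peat/vermiculite medium. Greenhouse for 13–21 d, then visual rating against untreated controls, 0 (no effect) to 100 (complete control).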

[2] = system: morningglory (Ipomoea coccinea); assay: Test C pre-/postemergence greenhouse test
Summary of the method: as §1

[3] = system: waterhemp (common waterhemp, Amaranthus rudis); assay: Test C pre-/postemergence greenhouse test
Summary of the method: as §1

[4] = system: galium (catchweed bedstraw, Galium aparine); assay: Test C pre-/postemergence greenhouse test
Summary of the method: as §1

kochia (Kochia scoparia) = assay: Test C pre-/postemergence greenhouse test
Summary of the method: as §1

[5] = system: blackgrass (Alopecurus myosuroides); assay: Test C pre-/postemergence greenhouse test
Summary of the method: as §1

soybean (Glycine max) = assay: Test C pre-/postemergence greenhouse test
Summary of the method: as §1

oat, wild (Avena fatua) = assay: Test C pre-/postemergence greenhouse test
Summary of the method: as §1

[6] = system: lambsquarters (Chenopodium album); assay: Test C pre-/postemergence greenhouse test
Summary of the method: as §1

[7] = system: pigweed, palmer (Amaranthus palmeri); assay: Test C pre-/postemergence greenhouse test
Summary of the method: as §1

[8] = system: field poppy (Papaver rhoeas); assay: Test C postemergence greenhouse test
Text: (§2) Seeds of plant species selected from blackgrass (Alopecurus myosuroides), ryegrass, Italian (Lolium multiflorum), wheat, winter (winter wheat, Triticum aestivum), galium (catchweed bedstraw, Galium aparine), corn (Zea mays), crabgrass, large (Digitaria sanguinalis), foxtail, giant (Setaria faberii), johnsongrass (Sorghum halepense), lambsquarters (Chenopodium album), morningglory (Ipomoea coccinea), nutsedge, yellow (Cyperus esculentus), pigweed (Amaranthus retroflexus), ragweed (common ragweed, Ambrosia elatior), soybean (Glycine max), barnyardgrass (Echinochloa crus-galli), oilseed rape (Brassica napus), waterhemp (common waterhemp, Amaranthus rudis), pigweed, palmer (Amaranthus palmeri), kochia (Kochia scoparia), oat, wild (Avena fatua), surinam grass (Brachiaria decumbens), windgrass (Apera spica-venti), poinsettia, wild (Euphorbia heterophylla) and velvetleaf (Abutilon theophrasti) were planted into a silt loam soil and treated preemergence with test chemicals formulated in a non-phytotoxic solvent mixture which included a surfactant.
(§3) At the same time, plants selected from these crop and weed species and also chickweed (common chickweed, Stellaria media), buckwheat, wild (Polygonum convolvulus), mustard, wild (Sinapis arvensis), field poppy (Papaver rhoeas), field violet (Viola arvensis), nightshade (eastern black nightshade, Solanum ptycanthum), speedwell (bird's-eye speedwell, Veronica persica), horseweed (Conyza canadensis), cutleaf geranium (Geranium dissectum), and Canada thistle (Cirsium arvense) were planted in pots containing Redi-Earth® planting medium (Scotts Company, 14111 Scottslawn Road, Marysville, Ohio 43041) comprising spaghnum peat moss, vermiculite, wetting agent and starter nutrients and treated with postemergence applications of test chemicals formulated in the same manner. Plants ranged in height from 2 to 18 cm (1- to 4-leaf stage) for postemergence treatments. Treated plants and controls were maintained in a greenhouse for 13 to 21 d, after which time all species were compared to controls and visually evaluated. Plant response ratings, summarized in Table C-1 (postemergence) and C-2 (preemergence), are based on a scale of 0 to 100 where 0 is no effect and 100 is complete control. A dash (-) response means no test result.

[9] = system: chickweed (common chickweed, Stellaria media); assay: Test C postemergence greenhouse test
Text: as §2, §3

Cc1ccc2ccc(Cl)cc2c1-c1c(O)c(Cl)nn(C)c1=O [Cpd. No. 22]
Plant response rating, Foxtail, Giant ([1]; Postemergence, 16 g ai/ha): 85
Plant response rating, Foxtail, Giant ([1]; Postemergence, 31 g ai/ha): 90
Plant response rating, Foxtail, Giant ([1]; Postemergence, 62 g ai/ha): 95
Plant response rating, Foxtail, Giant ([1]; Postemergence, 125 g ai/ha): 98
Plant response rating, Foxtail, Giant ([1]; Preemergence, 31 g ai/ha): 80
Plant response rating, Foxtail, Giant ([1]; Preemergence, 61 g ai/ha): 0
Plant response rating, Foxtail, Giant ([1]; Preemergence, 62 g ai/ha): 100
Plant response rating, Foxtail, Giant ([1]; Preemergence, 125 g ai/ha): 100
Plant response rating, Morningglory ([2]; Postemergence, 16 g ai/ha): 85
Plant response rating, Morningglory ([2]; Postemergence, 31 g ai/ha): 100
Plant response rating, Morningglory ([2]; Postemergence, 62 g ai/ha): 100
Plant response rating, Morningglory ([2]; Postemergence, 125 g ai/ha): 100
Plant response rating, Morningglory ([2]; Preemergence, 31 g ai/ha): 35
Plant response rating, Morningglory ([2]; Preemergence, 61 g ai/ha): 25
Plant response rating, Morningglory ([2]; Preemergence, 125 g ai/ha): 85
Plant response rating, Waterhemp ([3]; Postemergence, 16 g ai/ha): 75
Plant response rating, Waterhemp ([3]; Postemergence, 31 g ai/ha): 85
Plant response rating, Waterhemp ([3]; Postemergence, 62 g ai/ha): 85
Plant response rating, Waterhemp ([3]; Postemergence, 125 g ai/ha): 90
Plant response rating, Waterhemp ([3]; Preemergence, 31 g ai/ha): 85
Plant response rating, Waterhemp ([3]; Preemergence, 61 g ai/ha): 70
Plant response rating, Waterhemp ([3]; Preemergence, 62 g ai/ha): 95
Plant response rating, Waterhemp ([3]; Preemergence, 125 g ai/ha): 95
Plant response rating, Galium ([4]; Postemergence, 16 g ai/ha): 85
Plant response rating, Galium ([4]; Postemergence, 31 g ai/ha): 85
Plant response rating, Galium ([4]; Postemergence, 62 g ai/ha): 95
Plant response rating, Galium ([4]; Postemergence, 125 g ai/ha): 98
Plant response rating, Galium ([4]; Preemergence, 31 g ai/ha): 50
Plant response rating, Galium ([4]; Preemergence, 61 g ai/ha): 20
Plant response rating, Galium ([4]; Preemergence, 62 g ai/ha): 70
Plant response rating, Galium ([4]; Preemergence, 125 g ai/ha): 95
Plant response rating, Kochia (kochia (Kochia scoparia); Postemergence, 16 g ai/ha): 25
Plant response rating, Kochia (kochia (Kochia scoparia); Postemergence, 31 g ai/ha): 35
Plant response rating, Kochia (kochia (Kochia scoparia); Postemergence, 62 g ai/ha): 65
Plant response rating, Kochia (kochia (Kochia scoparia); Postemergence, 125 g ai/ha): 70
Plant response rating, Kochia (kochia (Kochia scoparia); Preemergence, 31 g ai/ha): 5
Plant response rating, Kochia (kochia (Kochia scoparia); Preemergence, 61 g ai/ha): 0
Plant response rating, Kochia (kochia (Kochia scoparia); Preemergence, 62 g ai/ha): 80
Plant response rating, Kochia (kochia (Kochia scoparia); Preemergence, 125 g ai/ha): 95
Plant response rating, Blackgrass ([5]; Postemergence, 16 g ai/ha): 70
Plant response rating, Blackgrass ([5]; Postemergence, 31 g ai/ha): 85
Plant response rating, Blackgrass ([5]; Postemergence, 62 g ai/ha): 90
Plant response rating, Blackgrass ([5]; Postemergence, 125 g ai/ha): 100
Plant response rating, Blackgrass ([5]; Preemergence, 31 g ai/ha): 25
Plant response rating, Blackgrass ([5]; Preemergence, 61 g ai/ha): 5
Plant response rating, Blackgrass ([5]; Preemergence, 62 g ai/ha): 30
Plant response rating, Blackgrass ([5]; Preemergence, 125 g ai/ha): 85
Plant response rating, Soybean (soybean (Glycine max); Postemergence, 16 g ai/ha): 5
Plant response rating, Soybean (soybean (Glycine max); Postemergence, 31 g ai/ha): 10
Plant response rating, Soybean (soybean (Glycine max); Postemergence, 62 g ai/ha): 20
Plant response rating, Soybean (soybean (Glycine max); Postemergence, 125 g ai/ha): 25
Plant response rating, Soybean (soybean (Glycine max); Preemergence, 31 g ai/ha): 5
Plant response rating, Soybean (soybean (Glycine max); Preemergence, 61 g ai/ha): 0
Plant response rating, Soybean (soybean (Glycine max); Preemergence, 62 g ai/ha): 0
Plant response rating, Soybean (soybean (Glycine max); Preemergence, 125 g ai/ha): 30
Plant response rating, Oat, Wild (oat, wild (Avena fatua); Postemergence, 16 g ai/ha): 98
Plant response rating, Oat, Wild (oat, wild (Avena fatua); Postemergence, 31 g ai/ha): 100
Plant response rating, Oat, Wild (oat, wild (Avena fatua); Postemergence, 62 g ai/ha): 100
Plant response rating, Oat, Wild (oat, wild (Avena fatua); Postemergence, 125 g ai/ha): 100
Plant response rating, Oat, Wild (oat, wild (Avena fatua); Preemergence, 31 g ai/ha): 30
Plant response rating, Oat, Wild (oat, wild (Avena fatua); Preemergence, 61 g ai/ha): 0
Plant response rating, Oat, Wild (oat, wild (Avena fatua); Preemergence, 62 g ai/ha): 45
Plant response rating, Oat, Wild (oat, wild (Avena fatua); Preemergence, 125 g ai/ha): 95
Plant response rating, Lambsquarters ([6]; Postemergence, 16 g ai/ha): 80
Plant response rating, Lambsquarters ([6]; Postemergence, 31 g ai/ha): 85
Plant response rating, Lambsquarters ([6]; Postemergence, 62 g ai/ha): 100
Plant response rating, Lambsquarters ([6]; Postemergence, 125 g ai/ha): 85
Plant response rating, Lambsquarters ([6]; Preemergence, 31 g ai/ha): 75
Plant response rating, Lambsquarters ([6]; Preemergence, 61 g ai/ha): 70
Plant response rating, Lambsquarters ([6]; Preemergence, 62 g ai/ha): 90
Plant response rating, Lambsquarters ([6]; Preemergence, 125 g ai/ha): 100
Plant response rating, Pigweed, Palmer ([7]; Postemergence, 16 g ai/ha): 50
Plant response rating, Pigweed, Palmer ([7]; Postemergence, 31 g ai/ha): 70
Plant response rating, Pigweed, Palmer ([7]; Postemergence, 62 g ai/ha): 70
Plant response rating, Pigweed, Palmer ([7]; Postemergence, 125 g ai/ha): 75
Plant response rating, Pigweed, Palmer ([7]; Preemergence, 31 g ai/ha): 65
Plant response rating, Pigweed, Palmer ([7]; Preemergence, 61 g ai/ha): 40
Plant response rating, Pigweed, Palmer ([7]; Preemergence, 62 g ai/ha): 75
Plant response rating, Pigweed, Palmer ([7]; Preemergence, 125 g ai/ha): 100
Plant response rating, Field Poppy ([8]; 16 g ai/ha): 75
Plant response rating, Field Poppy ([8]; 31 g ai/ha): 75
Plant response rating, Field Poppy ([8]; 62 g ai/ha): 75
Plant response rating, Field Poppy ([8]; 125 g ai/ha): 100
Plant response rating, Chickweed ([9]; 16 g ai/ha): 100
Plant response rating, Chickweed ([9]; 31 g ai/ha): 98
Plant response rating, Chickweed ([9]; 62 g ai/ha): 100
Plant response rating, Chickweed ([9]; 125 g ai/ha): 100
